{"source": "ChEMBL document CHEMBL1240295", "about": "“Specificity and mechanism of action of some commonly used protein kinase inhibitors” (Biochem J, 2000)", "key": {"[1]": {"target": "Mitogen-activated protein kinase 14 (Homo sapiens) (UniProt Q16539)", "sequence (Q16539 whole entry)": "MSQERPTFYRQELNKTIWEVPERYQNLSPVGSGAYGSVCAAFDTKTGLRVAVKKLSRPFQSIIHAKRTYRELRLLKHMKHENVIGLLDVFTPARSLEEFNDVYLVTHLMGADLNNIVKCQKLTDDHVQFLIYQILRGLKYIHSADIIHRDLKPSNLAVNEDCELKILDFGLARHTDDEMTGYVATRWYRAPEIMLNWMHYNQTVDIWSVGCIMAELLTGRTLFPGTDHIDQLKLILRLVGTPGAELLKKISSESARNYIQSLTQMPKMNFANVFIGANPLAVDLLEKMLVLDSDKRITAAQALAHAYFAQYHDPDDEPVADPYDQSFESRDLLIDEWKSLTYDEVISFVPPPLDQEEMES", "details": "at 10 µM", "description": "Inhibition of Gst-tagged human SAPK2a/p38 expressed in Escherichia coli at 10 uM"}, "[2]": {"target": "Protein kinase C alpha type (Homo sapiens, UniProt P17252)", "details": "at 10 µM", "description": "Inhibition of His-tagged human PKCalpha expressed in Escherichia coli at 10 uM"}, "[3]": {"target": "RAC-alpha serine/threonine-protein kinase (Homo sapiens) (UniProt P31749)", "sequence (P31749 whole entry)": "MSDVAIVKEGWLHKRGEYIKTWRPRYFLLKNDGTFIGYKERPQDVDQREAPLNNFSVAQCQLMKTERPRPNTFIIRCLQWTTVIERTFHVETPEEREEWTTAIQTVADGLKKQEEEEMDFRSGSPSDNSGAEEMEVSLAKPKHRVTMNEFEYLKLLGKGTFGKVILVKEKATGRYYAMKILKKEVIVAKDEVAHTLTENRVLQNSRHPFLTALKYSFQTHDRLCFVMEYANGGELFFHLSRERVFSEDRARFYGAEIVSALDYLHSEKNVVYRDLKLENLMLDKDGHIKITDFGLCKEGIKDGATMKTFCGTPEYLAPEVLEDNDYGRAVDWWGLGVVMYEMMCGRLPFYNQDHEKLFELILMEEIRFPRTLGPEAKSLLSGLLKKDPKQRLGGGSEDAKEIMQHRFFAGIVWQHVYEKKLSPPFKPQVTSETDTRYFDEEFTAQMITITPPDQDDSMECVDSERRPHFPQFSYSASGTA", "details": "Sf9, at 10 µM", "description": "Inhibition of human PKBalpha expressed in SF9 cells at 10 uM"}, "Oryctolagus cuniculus [4]": {"species_on_record": "Oryctolagus cuniculus", "details": "Muscle tissue, at 10 µM", "description": "Inhibition of MAPKAPK1b from rabbit skeletal muscle at 10 uM"}, "[5]": {"target": "MAP kinase-activated protein kinase 2 (Homo sapiens, UniProt P49137)", "sequence (P49137 whole entry, looked up)": "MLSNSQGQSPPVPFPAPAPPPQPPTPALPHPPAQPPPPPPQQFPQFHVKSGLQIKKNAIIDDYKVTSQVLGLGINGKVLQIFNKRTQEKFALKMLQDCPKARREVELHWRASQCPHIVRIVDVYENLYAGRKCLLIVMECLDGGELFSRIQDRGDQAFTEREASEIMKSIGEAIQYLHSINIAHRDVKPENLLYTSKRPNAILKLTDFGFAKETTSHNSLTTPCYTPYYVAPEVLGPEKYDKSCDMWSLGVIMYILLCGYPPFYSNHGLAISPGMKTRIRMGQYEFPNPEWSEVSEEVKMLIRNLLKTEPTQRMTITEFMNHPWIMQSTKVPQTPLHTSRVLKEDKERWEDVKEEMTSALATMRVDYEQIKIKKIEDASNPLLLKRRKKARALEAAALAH", "details": "at 10 µM", "description": "Inhibition of Gst-tagged human MAPKAPK2 expressed in Escherichia coli at 10 uM"}, "[6]": {"assay": "Inhibition of bovine heart PKA", "set-up": "species or system Bos taurus"}, "Rattus norvegicus": {"species_on_record": "Rattus norvegicus", "details": "at 10 µM", "description": "Inhibition of rat liver AMPK at 10 uM"}, "[7]": {"target": "3-phosphoinositide-dependent protein kinase 1 (Homo sapiens) (UniProt O15530)", "sequence (O15530 whole entry, looked up)": "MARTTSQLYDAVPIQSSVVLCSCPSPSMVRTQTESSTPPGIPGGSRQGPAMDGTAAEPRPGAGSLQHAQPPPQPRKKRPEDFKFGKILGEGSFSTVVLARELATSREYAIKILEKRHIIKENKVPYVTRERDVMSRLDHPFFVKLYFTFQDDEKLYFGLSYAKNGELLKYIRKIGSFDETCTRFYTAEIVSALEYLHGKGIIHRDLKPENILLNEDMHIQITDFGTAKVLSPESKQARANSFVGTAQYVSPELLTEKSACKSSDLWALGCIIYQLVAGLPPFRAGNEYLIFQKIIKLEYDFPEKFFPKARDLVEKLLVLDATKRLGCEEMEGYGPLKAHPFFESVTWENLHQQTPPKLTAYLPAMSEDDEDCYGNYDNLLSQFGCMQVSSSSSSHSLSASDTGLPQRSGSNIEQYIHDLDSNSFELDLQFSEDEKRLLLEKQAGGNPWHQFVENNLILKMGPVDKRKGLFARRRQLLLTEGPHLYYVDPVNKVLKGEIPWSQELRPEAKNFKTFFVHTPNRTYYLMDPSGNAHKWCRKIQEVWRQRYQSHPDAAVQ", "details": "Sf21, at 10 µM"}, "[8]": {"target": "T1, Serine/threonine-protein kinase Sgk1 (Homo sapiens) (UniProt O00141)", "T1 sequence (whole entry)": "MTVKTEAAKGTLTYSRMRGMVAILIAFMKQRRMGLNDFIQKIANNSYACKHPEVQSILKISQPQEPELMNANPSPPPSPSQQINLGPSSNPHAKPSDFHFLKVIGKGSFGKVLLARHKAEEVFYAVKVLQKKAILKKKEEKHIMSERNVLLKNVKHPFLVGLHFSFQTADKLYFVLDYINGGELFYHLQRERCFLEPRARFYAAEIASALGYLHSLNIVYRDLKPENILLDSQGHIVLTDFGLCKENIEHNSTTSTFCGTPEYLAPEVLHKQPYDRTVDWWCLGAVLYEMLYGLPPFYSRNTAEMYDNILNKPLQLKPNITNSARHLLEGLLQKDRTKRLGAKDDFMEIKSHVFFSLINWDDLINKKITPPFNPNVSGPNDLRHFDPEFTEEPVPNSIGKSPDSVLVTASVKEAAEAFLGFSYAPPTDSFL", "details": "Sf9, at 10 µM", "description": "Inhibition of His-tagged human SGK expressed in Sf9 cells at 10 uM"}, "[9]": {"target": "T2, Mitogen-activated protein kinase 12 (Homo sapiens) (UniProt P53778)", "T2 sequence (whole entry)": "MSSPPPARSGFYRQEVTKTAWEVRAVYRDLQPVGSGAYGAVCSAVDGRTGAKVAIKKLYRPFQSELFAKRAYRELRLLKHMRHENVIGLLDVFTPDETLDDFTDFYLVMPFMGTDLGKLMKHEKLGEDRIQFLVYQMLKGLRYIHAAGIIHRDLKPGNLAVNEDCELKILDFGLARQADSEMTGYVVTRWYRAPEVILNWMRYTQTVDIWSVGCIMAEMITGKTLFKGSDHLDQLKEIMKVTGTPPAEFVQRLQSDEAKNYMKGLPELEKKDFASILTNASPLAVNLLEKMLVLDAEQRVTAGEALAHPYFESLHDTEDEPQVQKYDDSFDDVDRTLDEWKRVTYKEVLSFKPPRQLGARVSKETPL", "details": "at 10 µM", "description": "Inhibition of Gst-tagged human SAPK3/p38gamma expressed in Escherichia coli at 10 uM"}, "[10]": {"target": "Casein kinase II (Homo sapiens) (UniProt P67870+P68400+P19784)", "details": "Sf9, at 10 µM", "description": "Inhibition of His-tagged human CK2 expressed in Sf9 cells at 10 uM"}, "[11]": {"target": "T3, Serine/threonine-protein kinase Chk1 (Homo sapiens) (UniProt O14757)", "T3 sequence (whole entry)": "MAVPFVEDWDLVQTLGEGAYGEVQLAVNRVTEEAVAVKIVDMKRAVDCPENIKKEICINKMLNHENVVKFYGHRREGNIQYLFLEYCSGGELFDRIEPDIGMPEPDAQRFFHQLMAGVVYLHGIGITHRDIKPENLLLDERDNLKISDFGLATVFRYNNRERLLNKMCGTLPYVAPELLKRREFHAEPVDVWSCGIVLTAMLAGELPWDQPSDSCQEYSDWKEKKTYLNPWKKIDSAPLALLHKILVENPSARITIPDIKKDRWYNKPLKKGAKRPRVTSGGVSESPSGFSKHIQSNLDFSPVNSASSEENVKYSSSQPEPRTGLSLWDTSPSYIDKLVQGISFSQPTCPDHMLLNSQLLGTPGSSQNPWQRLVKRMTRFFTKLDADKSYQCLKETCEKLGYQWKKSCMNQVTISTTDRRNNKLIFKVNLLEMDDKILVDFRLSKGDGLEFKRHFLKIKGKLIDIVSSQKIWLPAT", "details": "at 10 µM", "description": "Inhibition of His-tagged human CHK1 expressed in Escherichia coli at 10 uM"}, "[12]": {"target": "Mitogen-activated protein kinase 8 (Homo sapiens) (UniProt P45983)", "sequence (P45983 whole entry)": "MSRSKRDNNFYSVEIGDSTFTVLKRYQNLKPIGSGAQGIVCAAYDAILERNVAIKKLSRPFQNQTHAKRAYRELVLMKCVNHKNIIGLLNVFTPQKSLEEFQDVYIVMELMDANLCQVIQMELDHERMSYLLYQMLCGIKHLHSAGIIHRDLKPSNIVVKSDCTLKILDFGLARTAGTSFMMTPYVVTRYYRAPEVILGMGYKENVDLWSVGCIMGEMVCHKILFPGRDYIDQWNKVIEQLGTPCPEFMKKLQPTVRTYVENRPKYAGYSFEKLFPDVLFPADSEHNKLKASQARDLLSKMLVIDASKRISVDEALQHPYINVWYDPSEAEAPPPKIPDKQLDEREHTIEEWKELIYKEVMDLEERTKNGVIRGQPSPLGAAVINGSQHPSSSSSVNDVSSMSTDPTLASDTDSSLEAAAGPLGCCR", "details": "at 10 µM", "description": "Inhibition of Gst-tagged human JNK1a1 expressed in Escherichia coli at 10 uM"}, "[13]": {"target": "Rho-associated protein kinase 2 (Rattus norvegicus) (UniProt Q62868)", "details": "Sf9, at 10 µM", "description": "Inhibition of rat ROCK2 expressed in Sf9 cells at 10 uM"}, "[14]": {"target": "Ribosomal protein S6 kinase alpha-5 (Homo sapiens, UniProt O75582)", "sequence (O75582 whole entry, looked up)": "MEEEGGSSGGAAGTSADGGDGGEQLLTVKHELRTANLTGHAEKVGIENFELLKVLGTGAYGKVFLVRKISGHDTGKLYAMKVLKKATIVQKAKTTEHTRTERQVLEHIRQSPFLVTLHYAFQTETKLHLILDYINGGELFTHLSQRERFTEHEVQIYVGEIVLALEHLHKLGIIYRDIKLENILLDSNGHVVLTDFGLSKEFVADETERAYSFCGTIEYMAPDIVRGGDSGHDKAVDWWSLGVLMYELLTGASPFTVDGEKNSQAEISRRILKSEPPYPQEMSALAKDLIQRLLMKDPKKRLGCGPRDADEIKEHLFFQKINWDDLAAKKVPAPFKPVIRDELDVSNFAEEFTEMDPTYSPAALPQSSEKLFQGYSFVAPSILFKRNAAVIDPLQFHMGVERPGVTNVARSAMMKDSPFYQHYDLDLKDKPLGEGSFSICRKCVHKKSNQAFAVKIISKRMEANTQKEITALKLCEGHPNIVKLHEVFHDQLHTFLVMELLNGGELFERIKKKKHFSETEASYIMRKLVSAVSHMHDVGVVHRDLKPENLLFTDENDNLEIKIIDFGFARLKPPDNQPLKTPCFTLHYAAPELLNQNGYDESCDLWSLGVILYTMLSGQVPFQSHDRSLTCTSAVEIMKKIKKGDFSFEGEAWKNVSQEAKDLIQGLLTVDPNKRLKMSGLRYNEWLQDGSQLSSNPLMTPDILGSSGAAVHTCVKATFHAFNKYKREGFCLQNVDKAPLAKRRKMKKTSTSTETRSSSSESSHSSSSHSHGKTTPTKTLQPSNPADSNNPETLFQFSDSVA", "details": "Sf9, at 10 µM", "description": "Inhibition of His-tagged human MSK1 expressed in Sf9 cells at 10 uM"}, "[15]": {"target": "Glycogen synthase kinase-3 beta (Homo sapiens, UniProt P49841)", "sequence (P49841 whole entry, looked up)": "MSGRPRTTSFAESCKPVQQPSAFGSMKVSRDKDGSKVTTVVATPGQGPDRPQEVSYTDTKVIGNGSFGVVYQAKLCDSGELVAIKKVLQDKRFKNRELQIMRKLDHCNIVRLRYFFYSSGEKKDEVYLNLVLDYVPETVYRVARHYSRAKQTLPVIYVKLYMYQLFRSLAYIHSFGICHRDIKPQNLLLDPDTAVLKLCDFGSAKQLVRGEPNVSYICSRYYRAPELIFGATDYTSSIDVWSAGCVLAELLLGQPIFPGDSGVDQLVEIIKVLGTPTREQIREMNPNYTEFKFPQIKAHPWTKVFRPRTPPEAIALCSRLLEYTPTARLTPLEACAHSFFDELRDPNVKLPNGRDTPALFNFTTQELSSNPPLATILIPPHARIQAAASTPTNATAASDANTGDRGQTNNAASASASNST", "details": "Sf21, at 10 µM", "description": "Inhibition of His-tagged human GSK3b expressed in Sf21 cells at 10 uM"}, "[16]": {"target": "Ribosomal protein S6 kinase beta-1 (Homo sapiens, UniProt P23443)", "details": "at 10 µM", "description": "Inhibition of His-tagged human S6K1 expressed in Escherichia coli at 10 uM"}, "[17]": {"target": "T4, Mitogen-activated protein kinase 13 (Homo sapiens) (UniProt O15264)", "T4 sequence (whole entry)": "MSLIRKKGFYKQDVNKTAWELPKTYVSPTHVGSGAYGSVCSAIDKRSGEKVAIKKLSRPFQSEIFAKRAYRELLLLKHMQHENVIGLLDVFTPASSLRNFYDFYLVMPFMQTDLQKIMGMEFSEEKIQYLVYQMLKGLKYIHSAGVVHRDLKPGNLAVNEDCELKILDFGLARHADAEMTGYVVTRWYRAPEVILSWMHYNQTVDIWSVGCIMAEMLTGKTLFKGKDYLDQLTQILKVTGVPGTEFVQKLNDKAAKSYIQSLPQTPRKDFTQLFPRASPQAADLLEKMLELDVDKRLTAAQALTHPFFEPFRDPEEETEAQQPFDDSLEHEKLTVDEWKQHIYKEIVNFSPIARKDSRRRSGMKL", "details": "at 10 µM", "description": "Inhibition of Gst-tagged human SAPK4/p38delta expressed in Escherichia coli at 10 uM"}, "Oryctolagus cuniculus [18]": {"species_on_record": "Oryctolagus cuniculus", "details": "at 10 µM", "description": "Inhibition of rabbit MKK1 expressed in Escherichia coli at 10 uM"}, "[19]": {"assay": "Inhibition of PHK from rabbit skeletal muscle", "format": "tissue-based, Oryctolagus cuniculus, Muscle tissue"}, "Bos taurus": {"species_on_record": "Bos taurus", "details": "at 10 µM", "description": "Inhibition of bovine heart PKA at 10 uM"}, "Oryctolagus cuniculus [20]": {"species_on_record": "Oryctolagus cuniculus", "details": "Muscle tissue, at 10 µM", "remark": "listed apart in the source", "description": "Inhibition of PHK from rabbit skeletal muscle at 10 uM"}, "[21]": {"target": "Mitogen-activated protein kinase 1 (Homo sapiens) (UniProt P28482)", "sequence (P28482 whole entry)": "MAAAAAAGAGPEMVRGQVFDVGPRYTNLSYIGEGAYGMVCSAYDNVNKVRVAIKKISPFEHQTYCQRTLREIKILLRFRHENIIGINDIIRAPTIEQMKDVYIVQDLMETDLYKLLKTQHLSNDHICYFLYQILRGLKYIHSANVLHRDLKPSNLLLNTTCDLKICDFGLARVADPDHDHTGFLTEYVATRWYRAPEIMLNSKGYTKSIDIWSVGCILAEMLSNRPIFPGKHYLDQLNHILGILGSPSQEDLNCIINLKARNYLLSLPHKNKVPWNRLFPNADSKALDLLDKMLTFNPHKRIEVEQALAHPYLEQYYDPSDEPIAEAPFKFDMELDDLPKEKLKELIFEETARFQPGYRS", "details": "at 10 µM", "description": "Inhibition of Gst-tagged human MAPK2/ERK2 expressed in Escherichia coli at 10 uM"}, "[22]": {"target": "Tyrosine-protein kinase Lck (Homo sapiens) (UniProt P06239)", "sequence (P06239 2-509 limits assumed)": "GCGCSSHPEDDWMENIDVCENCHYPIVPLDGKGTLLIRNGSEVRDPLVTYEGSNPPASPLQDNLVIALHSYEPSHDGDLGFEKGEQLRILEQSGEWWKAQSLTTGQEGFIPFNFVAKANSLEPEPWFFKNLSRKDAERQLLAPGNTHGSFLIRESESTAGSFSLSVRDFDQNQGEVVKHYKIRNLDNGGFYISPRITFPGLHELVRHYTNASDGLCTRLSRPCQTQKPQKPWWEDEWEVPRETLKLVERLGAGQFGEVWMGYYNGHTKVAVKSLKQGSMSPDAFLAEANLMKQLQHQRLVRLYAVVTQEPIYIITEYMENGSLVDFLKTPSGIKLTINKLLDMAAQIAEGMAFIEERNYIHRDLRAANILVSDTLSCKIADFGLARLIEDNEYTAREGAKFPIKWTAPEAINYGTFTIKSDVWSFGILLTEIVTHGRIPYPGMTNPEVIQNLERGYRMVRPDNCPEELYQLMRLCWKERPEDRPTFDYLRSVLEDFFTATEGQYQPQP", "details": "Sf9, at 10 µM", "description": "Inhibition of His-tagged human LCK expressed in Sf9 cells at 10 uM"}, "[23]": {"target": "T5, MAP kinase-activated protein kinase 5 (Homo sapiens) (UniProt Q8IW41)", "T5 sequence (whole entry)": "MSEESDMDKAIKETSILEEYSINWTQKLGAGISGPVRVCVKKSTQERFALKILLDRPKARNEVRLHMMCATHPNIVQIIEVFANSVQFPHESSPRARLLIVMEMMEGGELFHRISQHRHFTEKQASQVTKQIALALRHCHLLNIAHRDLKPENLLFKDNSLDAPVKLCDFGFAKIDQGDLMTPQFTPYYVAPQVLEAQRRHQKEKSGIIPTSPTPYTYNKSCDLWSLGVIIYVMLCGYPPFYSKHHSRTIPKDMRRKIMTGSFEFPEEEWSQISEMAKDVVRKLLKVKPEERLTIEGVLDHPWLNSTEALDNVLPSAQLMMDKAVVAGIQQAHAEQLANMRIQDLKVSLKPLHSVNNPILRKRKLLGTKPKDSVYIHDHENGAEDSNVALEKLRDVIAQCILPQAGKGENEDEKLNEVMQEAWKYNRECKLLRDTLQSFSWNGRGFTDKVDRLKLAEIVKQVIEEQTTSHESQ", "details": "Sf9, at 10 µM", "description": "Inhibition of His-tagged human PRAK expressed in Sf9 cells at 10 uM"}, "[24]": {"target": "Mitogen-activated protein kinase 11 (Homo sapiens) (UniProt Q15759)", "sequence (Q15759 whole entry)": "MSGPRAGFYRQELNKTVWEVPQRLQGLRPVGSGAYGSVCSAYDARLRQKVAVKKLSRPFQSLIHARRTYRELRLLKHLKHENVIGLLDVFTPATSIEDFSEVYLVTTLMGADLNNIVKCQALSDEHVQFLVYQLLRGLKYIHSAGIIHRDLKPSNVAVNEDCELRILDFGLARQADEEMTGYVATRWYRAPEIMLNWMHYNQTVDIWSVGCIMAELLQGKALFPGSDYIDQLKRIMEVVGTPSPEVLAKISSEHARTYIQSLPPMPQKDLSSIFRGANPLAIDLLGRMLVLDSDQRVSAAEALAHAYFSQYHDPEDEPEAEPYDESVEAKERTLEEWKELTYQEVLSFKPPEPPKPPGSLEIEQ", "details": "at 10 µM", "description": "Inhibition of Gst-tagged human SAPK2b/p38--beta-2 expressed in Escherichia coli at 10 uM"}}}
{"smiles": "CCCCCCOC(=O)[C@@]1(O)C[C@H]2O[C@]1(C)n1c3ccccc3c3c4c(c5c6ccccc6n2c5c31)C(=O)NC4", "values": [{"measurement": "residual activity", "setting": "[1]", "result": 103, "unit": "%"}, {"measurement": "residual activity", "setting": "[2]", "result": 87, "unit": "%"}, {"measurement": "residual activity", "setting": "[3]", "result": 36, "unit": "%"}, {"measurement": "level, % of control", "setting": "Oryctolagus cuniculus [4]", "result": 23, "unit": "%"}, {"measurement": "residual activity", "setting": "[5]", "result": 62, "unit": "%"}, {"measurement": "IC50", "setting": "[6]", "result": 3300, "unit": "nM"}, {"measurement": "residual activity", "setting": "Rattus norvegicus", "result": 22, "unit": "%"}, {"measurement": "residual activity", "setting": "[7]", "result": 7, "unit": "%"}, {"measurement": "residual activity", "setting": "[8]", "result": 29, "unit": "%"}, {"measurement": "residual activity", "setting": "[9]", "result": 95, "unit": "%"}, {"measurement": "residual activity", "setting": "[10]", "result": 95, "unit": "%"}, {"measurement": "residual activity", "setting": "[11]", "result": 13, "unit": "%"}, {"measurement": "residual activity", "setting": "[12]", "result": 81, "unit": "%"}, {"measurement": "residual activity", "setting": "[13]", "result": 84, "unit": "%"}, {"measurement": "residual activity", "setting": "[14]", "result": 39, "unit": "%"}, {"measurement": "residual activity", "setting": "[15]", "result": 39, "unit": "%"}, {"measurement": "residual activity", "setting": "[16]", "result": 66, "unit": "%"}, {"measurement": "residual activity", "setting": "[17]", "result": 95, "unit": "%"}, {"measurement": "residual activity", "setting": "Oryctolagus cuniculus [18]", "result": 20, "unit": "%"}, {"measurement": "IC50", "setting": "[19]", "result": 11, "unit": "nM"}, {"measurement": "residual activity", "setting": "Bos taurus", "result": 39, "unit": "%"}, {"measurement": "level, % of control", "setting": "Oryctolagus cuniculus [20]", "result": 0, "unit": "%"}, {"measurement": "residual activity", "setting": "[21]", "result": 57, "unit": "%"}, {"measurement": "residual activity", "setting": "[22]", "result": 46, "unit": "%"}, {"measurement": "residual activity", "setting": "[23]", "result": 58, "unit": "%"}, {"measurement": "residual activity", "setting": "[24]", "result": 98, "unit": "%"}]}
